# Results published in patent US8178694B2, “Heterocyclylaminoalkyl substituted benzimidazoles” (Tibotec Pharmaceuticals Ltd., priority 2005, dated 2012).
# What was measured:
# [1] = system: Respiratory Syncytial Virus; experiment: In vitro screening for activity against Respiratory Syncytial Virus (tetrazolium-based colorimetric assay, HeLa cells); type: cell-based; settings: human respiratory syncytial virus, 168 h; protection against cytopathology caused by RSV in HeLa cells, MTT readout seven days after infection
# Text: The percent protection against cytopathology caused by viruses (antiviral activity or EC50) achieved by tested compounds and their cytotoxicity (CC50) are both calculated from dose-response curves. The selectivity of the antiviral effect is represented by the selectivity index (SI), calculated by dividing the CC50 (cytotoxic dose for 50% of the cells) by the EC50 (antiviral activity for 50% of the cells).
# Automated tetrazolium-based colorimetric assays were used for determination of EC50 and CC50 of test compounds. Flat-bottom, 96-well plastic microtiter trays were filled with 180 μl of Eagle's Basal Medium, supplemented with 5% FCS (0% for FLU) and 20 mM Hepes buffer. Subsequently, stock solutions (7.8× final test concentration) of compounds were added in 45 μl volumes to a series of triplicate wells so as to allow simultaneous evaluation of their effects on virus- and mock-infected cells. Five five-fold dilutions were made directly in the microtiter trays using a robot system. Untreated virus controls, and HeLa cell controls were included in each test. Approximately 100 TCID50 of Respiratory Syncytial Virus was added to two of the three rows in a volume of 50 μl. The same volume of medium was added to the third row to measure the cytotoxicity of the compounds at the same concentrations as those used to measure the antiviral activity. After two hours of incubation, a suspension (4×10^5 cells/ml) of HeLa cells was added to all wells in a volume of 50 μl. The cultures were incubated at 37° C. in a 5% CO2 atmosphere. Seven days after infection the cytotoxicity and the antiviral activity was examined spectrophotometrically. To each well of the microtiter tray, 25 μl of a solution of MTT (3-(4,5-dimethylthiazol-2-yl)-2,5-diphenyltetrazolium bromide) was added. The trays were further incubated at 37° C. for 2 hours, after which the medium was removed from each cup. Solubilization of the formazan crystals was achieved by adding 100 μl 2-propanol. Complete dissolution of the formazan crystals were obtained after the trays have been placed on a plate shaker for 10 min. Finally, the absorbances were read in an eight-channel computer-controlled photometer (Multiskan MCC, Flow Laboratories) at two wavelengths (540 and 690 nm). The absorbance measured at 690 nm was automatically subtracted from the absorbance at 540 nm, so as to eliminate the effects of non-specific absorption.
EC50 [1] [nM],melting point [°C],SMILES
31.6,,Cc1ccc(O)c(Cn2c(NCCCN3CCOCC3)nc3ccc(CNc4cccnc4CCO)cc32)n1 [c-3]
200,,OCCc1ncccc1NCc1ccc2nc(NCCCN3CCOCC3)n(Cc3ncccc3O)c2c1 [e-1]
50.1,207,Cc1ccc(O)c(Cn2c(NCCCN3CCOCC3)nc3ccc(CNc4cnccc4CCO)cc32)n1 [g-3]
447,142,OCCc1ccncc1NCc1ccc2nc(NCCCN3CCOCC3)n(Cc3ncccc3O)c2c1 [h-3]
